Laboratory results from patent publication US7851474B2, “Dipiperazinyl ketones and related analogues” (Neurogen Corporation, priority 2005, dated 2010).
pKi: −log10 of the molar value.

The compounds below were run against T1, chimeric human H3 receptor (Homo sapiens, UniProt Q9Y5N1, E19D) (assay: Chimeric human H3 receptor GTP binding assay (agonist-stimulated GTP-gamma35S binding, Example 7)). Details: "*" in Ki of Table II; assay of Example 7; read-out: Ki.
T1 construct: made in house; host or cells: Sf9 insect cells (baculovirus infection); P2 membrane preparation
T1 sequence (Q9Y5N1 with tags, fused parts or gaps E19D): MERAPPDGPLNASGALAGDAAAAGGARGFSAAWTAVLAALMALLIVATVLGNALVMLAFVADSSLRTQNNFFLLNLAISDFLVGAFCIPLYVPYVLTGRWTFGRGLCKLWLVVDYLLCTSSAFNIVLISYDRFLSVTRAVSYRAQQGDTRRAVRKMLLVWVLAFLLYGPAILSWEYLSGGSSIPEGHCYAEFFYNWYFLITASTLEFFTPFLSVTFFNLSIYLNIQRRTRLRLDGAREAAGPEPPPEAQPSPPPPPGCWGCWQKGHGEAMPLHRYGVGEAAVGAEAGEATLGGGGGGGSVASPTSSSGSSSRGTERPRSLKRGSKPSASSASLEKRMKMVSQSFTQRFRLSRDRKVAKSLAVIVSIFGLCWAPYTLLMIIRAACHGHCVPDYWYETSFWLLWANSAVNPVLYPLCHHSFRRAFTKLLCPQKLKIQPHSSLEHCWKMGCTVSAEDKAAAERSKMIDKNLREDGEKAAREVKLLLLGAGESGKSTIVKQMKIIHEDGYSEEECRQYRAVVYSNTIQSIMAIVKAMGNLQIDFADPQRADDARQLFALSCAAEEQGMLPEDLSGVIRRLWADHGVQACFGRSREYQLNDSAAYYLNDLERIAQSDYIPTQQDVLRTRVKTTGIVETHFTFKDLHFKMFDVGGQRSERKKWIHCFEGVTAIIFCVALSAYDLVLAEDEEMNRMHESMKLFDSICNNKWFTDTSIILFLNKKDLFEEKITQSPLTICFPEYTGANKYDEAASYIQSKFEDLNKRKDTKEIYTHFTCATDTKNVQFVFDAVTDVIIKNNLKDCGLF
Format: biochemical
Summary of the method: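 Sf9 membranes co-expressing the chimeric receptor and heterotrimeric G-protein subunits, 35 μg protein per tube, in pH 7.4 Tris buffer with 10 μM GDP. Test compounds at 10^−10 to 10^−6 M with 1 μM histamine, 60 min at room temperature. Filter-bound GTP-gamma^35S read by scintillation; IC50 from non-linear regression of dose-response curves.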

Row | pKi | Compound
1 | > 6.00 | COc1ccc(CC(=O)N2CCN(CC(=O)N3CCN(C4CCC4)CC3)CC2)c(OC)c1 [Compound 507, 1-cyclobutyl-4-({4-[(2,4-dimethoxyphenyl)acetyl]piperazin-1-yl}acetyl)piperazine]
2 | > 6.00 | O=C(CN1CCN(c2ccc(S(=O)(=O)Cc3ccccc3)cc2)CC1)N1CCN(C2CCC2)CC1 [Compound 460, 1-[4-(benzylsulfonyl)phenyl]-4-[2-(4-cyclobutylpiperazin-1-yl)-2-oxoethyl]piperazine]

Same assay, conditions: Table II "Ki", symbol "*": Ki in the assay of Example 7; read-out: Ki

Row | Compound | pKi
3 | O=C(CN1CCN(c2cnc(-c3cc(C(F)(F)F)cc(C(F)(F)F)c3)cn2)CC1)N1CCN(C2CCC2)CC1 [Compound 913, 2-[3,5-bis(trifluoromethyl)phenyl]-5-{4-[2-(4-cyclobutylpiperazin-1-yl)-2-oxoethyl]piperazin-1-yl}pyrazine] | > 6.00
4 | CCC(C)N1CCN(C(=O)CN2CCN(c3ccccc3)CC2)CC1 (stereo not shown) [Compound 857, 1-sec-butyl-4-[(4-phenylpiperazin-1-yl)acetyl]piperazine] | > 6.00
5 | Cc1cccc(C)c1N1CCN(CC(=O)N2CCN(C3CCCC3)CC2)CC1 [Compound 835, 1-cyclopentyl-4-{[4-(2,6-dimethylphenyl)piperazin-1-yl]acetyl}piperazine] | > 6.00

Now from value to compound:

Row | pKi | Compound
6 | > 6.00 | CCC(C)N1CCN(C(=O)CN2CCN(c3ccc(Cl)c(Cl)c3)CC2)CC1 (stereo not shown) [Compound 869, 1-sec-butyl-4-{[4-(3,4-dichlorophenyl)piperazin-1-yl]acetyl}piperazine]
7 | > 6.00 | CCC(C)N1CCN(C(=O)CN2CCN(c3ccc(OC)cc3)CC2)CC1 (stereo not shown) [Compound 881, 1-sec-butyl-4-{[4-(4-methoxyphenyl)piperazin-1-yl]acetyl}piperazine]
8 | > 6.00 | Cc1cc(C)cc(-c2cnc(N3CCN(CC(=O)N4CCN(C5CCC5)CC4)CC3)cn2)c1 [Compound 929, 2-{4-[2-(4-cyclobutylpiperazin-1-yl)-2-oxoethyl]piperazin-1-yl}-5-(3,5-dimethylphenyl)pyrazine]

Same assay, conditions: Table II, "*" in Ki; assay of Example 7; read-out: Ki

Row | pKi | Compound
9 | > 6.00 | O=C(CN1CCN(c2ccc(F)c(C(F)(F)F)c2)CC1)N1CCN(C2CCC2)CC1 [Compound 607, 1-cyclobutyl-4-({4-[4-fluoro-3-(trifluoromethyl)phenyl]piperazin-1-yl}acetyl)piperazine]
10 | > 6.00 | COc1ccc(C)cc1-c1ccc(N2CCN(CC(=O)N3CCN(C4CCC4)CC3)CC2)cc1 [Compound 710, 1-cyclobutyl-4-{[4-(2′-methoxy-5′-methylbiphenyl-4-yl)piperazin-1-yl]acetyl}piperazine]
11 | > 6.00 | COc1cccc(OC)c1-c1ccc(N2CCN(CC(=O)N3CCN(C4CCC4)CC3)CC2)cc1 [Compound 695, 1-cyclobutyl-4-{[4-(2′,6′-dimethoxybiphenyl-4-yl)piperazin-1-yl]acetyl}piperazine]
12 | > 6.00 | CC1CCCN1C(=O)c1cccc(N2CCN(CC(=O)N3CCN(C4CCC4)CC3)CC2)c1 (stereo not shown) [Compound 640, 1-cyclobutyl-4-[(4-{3-[(2-methylpyrrolidin-1-yl)carbonyl]phenyl}piperazin-1-yl)acetyl]piperazine]
13 | > 6.00 | CCOc1cccc(-c2ccc(N3CCN(CC(=O)N4CCN(C5CCC5)CC4)CC3)cc2)c1 [Compound 746, 1-cyclobutyl-4-{[4-(3′-ethoxybiphenyl-4-yl)piperazin-1-yl]acetyl}piperazine]
14 | > 6.00 | O=C(CN1CCN(c2cccc(Cl)c2Cl)CC1)N1CCN(C2CCC2)CC1 [Compound 666, 1-cyclobutyl-4-{[4-(2,3-dichlorophenyl)piperazin-1-yl]acetyl}piperazine]

Same assay, conditions: Table II; assay of Example 7; "*" in Ki; read-out: Ki

Row | Compound | pKi
15 | COc1ccc(C)cc1-c1ccc(N2CCN(CC(=O)N3CCN(C4CCC4)CC3)CC2)nn1 [Compound 1046, 3-{4-[2-(4-cyclobutylpiperazin-1-yl)-2-oxoethyl]piperazin-1-yl}-6-(2-methoxy-5-methylphenyl) pyridazine] | > 6.00
16 | COc1ccc(-c2ccc(N3CCN(CC(=O)N4CCN(C5CCC5)CC4)CC3)nn2)cc1OC [Compound 1033, 3-{4-[2-(4-cyclobutylpiperazin-1-yl)-2-oxoethyl]piperazin-1-yl}-6-(3,4-dimethoxyphenyl) pyridazine] | > 6.00
17 | COc1ccc(C)cc1-c1cnc(N2CCN(CC(=O)N3CCN(C4CCC4)CC3)CC2)cn1 [Compound 958, 2-{4-[2-(4-cyclobutylpiperazin-1-yl)-2-oxoethyl]piperazin-1-yl}-5-(2-methoxy-5-methylphenyl)pyrazine] | > 6.00
18 | O=C(CN1CCN(c2ccc(-c3ccccc3F)nn2)CC1)N1CCN(C2CCC2)CC1 [Compound 1005, 3-{4-[2-(4-cyclobutylpiperazin-1-yl)-2-oxoethyl]piperazin-1-yl}-6-(2-fluorophenyl)pyridazine] | > 6.00
19 | Cc1cccc(C)c1-c1cnc(N2CCN(CC(=O)N3CCN(C4CCC4)CC3)CC2)cn1 [Compound 972, 2-{4-[2-(4-cyclobutylpiperazin-1-yl)-2-oxoethyl]piperazin-1-yl}-5-(2,6-dimethylphenyl)pyrazine] | > 6.00

Next, values leading:

Row | pKi | Compound
20 | > 6.00 | O=C(CN1CCN(c2ccc(-c3cccc(F)c3)nn2)CC1)N1CCN(C2CCC2)CC1 [Compound 1004, 3-{4-[2-(4-cyclobutylpiperazin-1-yl)-2-oxoethyl]piperazin-1-yl}-6-(3-fluorophenyl)pyridazine]
21 | > 6.00 | Cc1ccc(F)c(-c2ccc(N3CCN(CC(=O)N4CCN(C5CCC5)CC4)CC3)nn2)c1 [Compound 1008, 3-{4-[2-(4-cyclobutylpiperazin-1-yl)-2-oxoethyl]piperazin-1-yl}-6-(2-fluoro-5-methylphenyl)pyridazine]
22 | > 6.00 | O=C(CN1CCN(c2cnc(-c3cccc(F)c3F)cn2)CC1)N1CCN(C2CCC2)CC1 [Compound 966, 2-{4-[2-(4-cyclobutylpiperazin-1-yl)-2-oxoethyl]piperazin-1-yl}-5-(2,3-difluorophenyl)pyrazine]
23 | > 6.00 | O=C(CN1CCN(c2cnc(-c3cc(F)ccc3F)cn2)CC1)N1CCN(C2CCC2)CC1 [Compound 960, 2-{4-[2-(4-cyclobutylpiperazin-1-yl)-2-oxoethyl]piperazin-1-yl}-5-(2,5-difluorophenyl)pyrazine]
24 | > 6.00 | COc1cc(-c2ccc(N3CCN(CC(=O)N4CCN(C5CCC5)CC4)CC3)nn2)cc(OC)c1OC [Compound 1031, 3-{4-[2-(4-cyclobutylpiperazin-1-yl)-2-oxoethyl]paperazin-1-yl}-6-(3,4,5-trimethoxyphenyl) pyridazine]

Same assay, conditions: assay of Example 7; "*" in Ki of Table II; read-out: Ki

Row | Compound | pKi
25 | N-{1-[2-(4- cyclobutylpiperazin-1-yl)- 2-oxoethyl]piperldin-4-yl}- 2-naphthamide [Compound 1207] | > 6.00
26 | CCCC(C)NC(=O)c1ccc(N2CCN(CC(=O)N3CCN(C4CCC4)CC3)CC2)cc1 (stereo not shown) [Compound 1142, 4-{4-[2-(4-cyclobutylpiperazin-1-yl)-2-oxoethyl]piperazin-1-yl}-N-(1-methylbutyl)benzamide] | > 6.00
27 | Cc1cccc(C(=O)NC2CCN(CC(=O)N3CCN(C4CCC4)CC3)C2)c1 (stereo not shown) [Compound 1230, N-{1-[2-(4-cyclobutylpiperazin-1-yl)-2-oxoethyl]pyrrolidin-3-yl}-3-methylbenzamide] | > 6.00
28 | CCOC(=O)c1ccc(-c2ccc(N3CCN(CC(=O)N4CCN(C5CCC5)CC4)CC3)cc2)cc1 [Compound 1199, ethyl 4′-{4-[2-(4-cyclobutylpiperazin-1-yl)-2-oxoethyl]piperazin-1-yl}biphenyl-4-carboxylate] | > 6.00

Other lines, results leading:

Row | pKi | Compound
29 | > 6.00 | O=C(NC1CCN(CC(=O)N2CCN(C3CCC3)CC2)C1)c1ccc2ccccc2c1 (stereo not shown) [Compound 1233, N-{1-[2-(4-cyclobutylpiperazin-1-yl)-2-oxoethyl]pyrrolidin-3-yl}-2-naphthamide]
30 | > 6.00 | CC(C)(C)CNC(=O)c1ccc(N2CCN(CC(=O)N3CCN(C4CCC4)CC3)CC2)nc1 [Compound 1187, 6-{4-[2-(4-cyclobutylpiperazin-1-yl)-2-oxoethyl]piperazin-1-yl}-N-(2,2-dimethylpropyl) nicotinamide]
31 | > 6.00 | CCC(CC)CNC(=O)c1ccc(N2CCN(CC(=O)N3CCN(C4CCC4)CC3)CC2)nc1 [Compound 1188, 6-{4-[2-(4-cyclobutylpiperazin-1-yl)-2-oxoethyl]piperazin-1-yl}-N-(2-ethylbutyl)nicotinamide]
32 | > 6.00 | CCC(C)NC(=O)c1ccc(N2CCN(CC(=O)N3CCN(C4CCC4)CC3)CC2)nc1 (stereo not shown) [Compound 1205, N-(sec-butyl)-6-{4-[2-(4-cyclobutylpiperazin-1-yl)-2-oxoethyl]piperazin-1-yl}nicotinamide]
33 | > 6.00 | CCOC(=O)c1cccc(-c2cnc(N3CCN(CC(=O)N4CCN(C5CCC5)CC4)CC3)cn2)c1 [Compound 1195, ethyl 3-(5-{4-[2-(4-cyclobutylpiperazin-1-yl)-2-oxoethyl]piperazin-1-yl}pyrazin-2-yl)benzoate]

Same assay, conditions: assay of Example 7; symbol * in column headed Ki of Table II; read-out: Ki

Row | pKi | Compound
34 | > 6.00 | CCN1CCN(C(=O)CN2CCN(c3ccc(Cl)c(C)c3)CC2)CC1 [Compound 352, 1-(4-chloro-3-methylphenyl)-4-[2-(4-ethylpiperazin-1-yl)-2-oxoethyl]piperazine]
35 | > 6.00 | CCC(C)N1CCN(C(=O)CN2CCN(c3ccc(Br)c(OC)c3)CC2)CC1 (stereo not shown) [Compound 337, 1-(4-bromo-3-methoxyphenyl)-4-[2-(4-sec-butylpiperazin-1-yl)-2-oxoethyl]piperazine]
36 | > 6.00 | CCN(CC)C1CCN(CC(=O)N2CCN(C3CCCC3)CC2)C1 (stereo not shown) [Compound 443, 1-[2-(4-cyclopentylpiperazin-1-yl)-2-oxoethyl]-N,N-diethylpyrrolidin-3-amine]
37 | > 6.00 | O=C(c1ccccc1)c1ccc(N2CCN(CC(=O)N3CCN(C4CCC4)CC3)CC2)cc1 [Compound 248, (4-{4-[2-(4-cyclobutylpiperazin-1-yl)-2-oxoethyl]piperazin-1-yl}phenyl)(phenyl)methanone]
